The source made the active and inactive calls. The rule behind the calls is not given here.
Legend:
SK-OV-3 [1] = experiment: Downregulation of c-Myc expression in human SK-OV-3 cells incubated for 48 hrs by Western blot analysis; format: functional, cell-based; conditions: dose 0.5-2.5 µM
KG-1 [2] = experiment: Upregulation of p21 expression in human KG-1 cells incubated for 48 hrs by Western blot analysis; format: functional, cell-based; conditions: dose 0.5-2.5 µM
KG-1 [3] = experiment: Downregulation of YAP1 expression in human KG-1 cells incubated for 48 hrs by Western blot analysis; format: functional, cell-based; conditions: dose 0.5-2.5 µM
[4] = molecular target: Signal transducer and activator of transcription 3 (Homo sapiens) (UniProt P40763); experiment: Inhibition of STAT3 phosphorylation in human SK-OV-3 cells at 0.5 to 2.5 uM incubated for 48 hrs by Western blot analysis; format: cell-based; conditions: dose 0.5-2.5 µM
Sequence of Signal transducer and activator of transcription 3 (Homo sapiens) (P40763 whole entry): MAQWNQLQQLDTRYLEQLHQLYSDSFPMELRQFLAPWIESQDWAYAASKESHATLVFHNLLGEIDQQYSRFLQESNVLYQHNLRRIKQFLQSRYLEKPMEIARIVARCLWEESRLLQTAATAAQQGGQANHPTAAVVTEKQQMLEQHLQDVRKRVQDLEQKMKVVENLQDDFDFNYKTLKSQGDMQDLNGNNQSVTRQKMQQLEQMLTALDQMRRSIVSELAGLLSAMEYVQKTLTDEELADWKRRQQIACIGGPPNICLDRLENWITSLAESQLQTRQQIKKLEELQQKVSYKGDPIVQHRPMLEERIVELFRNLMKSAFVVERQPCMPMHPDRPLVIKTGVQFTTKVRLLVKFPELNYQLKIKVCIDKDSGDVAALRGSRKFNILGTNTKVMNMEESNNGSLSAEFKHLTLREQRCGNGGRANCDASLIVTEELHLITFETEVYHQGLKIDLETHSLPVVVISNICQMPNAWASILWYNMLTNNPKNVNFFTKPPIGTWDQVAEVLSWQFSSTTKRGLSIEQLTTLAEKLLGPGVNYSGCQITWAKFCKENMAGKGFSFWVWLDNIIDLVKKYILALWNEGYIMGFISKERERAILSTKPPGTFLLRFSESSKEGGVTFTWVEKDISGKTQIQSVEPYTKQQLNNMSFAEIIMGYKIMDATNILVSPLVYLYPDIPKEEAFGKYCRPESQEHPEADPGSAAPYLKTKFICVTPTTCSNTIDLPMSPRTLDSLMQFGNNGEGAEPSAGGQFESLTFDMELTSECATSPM

[5] = Toxicity in nude mouse xenografted with human SK-OV-3 cells assessed as histopathological change in kidney at 30 to 60 mg/kg, ip qd treated for 14 days by H and E staining based analysis; format: organism-based; conditions: in vivo, 336 h, dose 30-60 mg/kg, time 14 day
U-937 = experiment: Downregulation of Bcl-2 expression in human U-937 cells incubated for 48 hrs by Western blot analysis; format: functional, cell-based
[6] = molecular target: Signal transducer and activator of transcription 3 (Homo sapiens) (UniProt P40763); experiment: Inhibition of STAT3 phosphorylation in human U-937 cells at 0.5 to 2.5 uM incubated for 48 hrs by Western blot analysis; format: cell-based; conditions: dose 0.5-2.5 µM
SK-OV-3 [7] = experiment: Downregulation of GLI1 expression in human SK-OV-3 cells incubated for 48 hrs by Western blot analysis; format: functional, cell-based; conditions: dose 1-5 µM
SK-OV-3 [8] = experiment: Antitumor activity against human SK-OV-3 cells xenografted in nude mouse assessed as reduction cell proliferation at 30 to 60 mg/kg, ip qd treated for 14 days by Ki67 staining based IHC analysis; format: functional, organism-based; conditions: dose 30-60 mg/kg, time 14.0 day

| inhibition [4] | inhibition [6] | SMILES | Activity (SK-OV-3 [1]) | Activity (KG-1 [2]) | Activity (KG-1 [3]) | Activity [5] | Activity (U-937) | Activity (SK-OV-3 [7]) | Activity (SK-OV-3 [8]) |
| --- | --- | --- | --- | --- | --- | --- | --- | --- | --- |
| Active | – | CCc1nccnc1C(=O)/C=C/c1ccccn1 | Dose-dependent-effect | Dose-dependent-effect | Dose-dependent-effect | – | – | – | – |
| – | Active | Cc1nccnc1C(=O)/C=C/c1cccc(C#N)c1 | – | – | – | Non-toxic | Dose-dependent-effect | Dose-dependent-effect | Active |
